This is an account of results in US9815878B2, “Use of PEDF-derived polypeptides for preventing and/or ameliorating skin aging” (MacKay Memorial Hospital, priority 2012, dated 2017).

One series concerns dermal fibroblasts. Put plainly: Dermal fibroblast proliferation in vivo, BrdU/vimentin staining of skin sections. Details: species or system mice. To be noted: normal skin, 16 hours after peptide/MN treatment. As for the experimental part: For animal study, BrdU was reconstituted in DMSO as stock (80 mM). 10 μl of BrdU stock mixed with 90 μl of PBS was intraperitoneally injected into mouse at 16 hours prior to euthanasia. Formalin-fixed, paraffin-embedded skin specimens were deparaffinized in xylene and rehydrated in a graded series of ethanol. The specimens were then exposed to 1 N HCl at room temperature for 1 hour for subsequent immunofluorescence study.
BrdU-labeled DNA was detected by polyclonal anti-BrdU antibody and rhodamine-conjugated donkey anti-rabbit IgG. Nuclei were counterstained with Hoechst 33258 (blue).
To investigate whether the transdermal delivery of the present PEDF peptides promotes the proliferation of dermal fibroblast in vivo, mice were intraperitoneally injected with BrdU and euthanized at 16 hours after the PEDF peptide/MN treatment or the vehicle/MN treatment. Skin sections were stained for vimentin (green) and BrdU (red). The level of BrdU- and vimentin-double positive cells was expressed as the percentage of BrdU- and vimentin-double positive cells per total vimentin-positive cells (the BrdU/Vimentin Labeling Index), and the results are summarized in Table 4.

The test system of series [1] is primary mouse dermal fibroblasts. Description: Cell migration of primary mouse dermal fibroblasts, transwell assay. The format is cell-based. As to conditions: 100 nM for 24 hours, data not shown.
Series [2] relates to Human dermal fibroblasts (WS-1 cells). Description: Cell migration of WS-1 cells, transwell assay. The format is cell-based. To be noted: 100 nM for 24 hours, data not shown. The source says: (§1) According to our preliminary study, cell viability was greater than 95% relative to that of the control after exposure to 15 mJ/cm^2 UVB irradiation (data not shown). […] Therefore, the exposure dose was set at 15 mJ/cm^2 in the following experiment.

In series [3] the test system is primary mouse dermal fibroblasts. Description: Cell viability of primary mouse dermal fibroblasts pretreated with peptide. The series is classed as cell-based. As to conditions: 100 nM for 24 hours, data not shown.
Source text: as §1

The subject of series [4] is Human dermal fibroblasts (WS-1 cells). Description: Cell viability of WS-1 cells pretreated with peptide. The series is classed as cell-based. As to conditions: 100 nM for 24 hours, data not shown.
Source text: as §1

For “Ac-SLGAEQRTESIIHRALYYDLISSPDIHGT-NH2 [29-mer]”, in the series on dermal fibroblasts, the “BrdU/Vimentin Labeling Index (%)” value is reported as 16.9 ± 1.9 %. The cell migration result in series [1] and in series [2] was “did not cause any significant change in cell migration” throughout. For the same substance, the cell viability entry in series [3] and in series [4] was “did not cause any significant change in cell viability” throughout.
As for “SLGAEQRTESIIHRALYYDL [20-mer, synthetic peptide corresponding to residues 93-112 of human PEDF]”, in the series on dermal fibroblasts, the “BrdU/Vimentin Labeling Index (%)” value worked out at 17.3 ± 3.2 %.
